Assay results: patent US20160324836A1, “INJECTABLE DEPOT FORMULATIONS” (pSivida US.Inc., priority 2015, published 2016)
Values after ≈ are worked out from the molar mass of the structure shown.

Assay: Solubility in ethanol
Format: physicochemical
Details: organic solvent or mixture
Experimental: In preferred embodiments, the solvent is ethanol. […] Similarly, preferred kinase inhibitors, such as apatinib, axitinib, cabozantinib, cediranib, crenolanib, foretinib, lenvatinib, linifanib, masitinib, motesanib, nintedanib, pazopanib, pegaptanib, regorafenib, semaxanib, sorafenib, sunitinib, tivozanib, toceranib, vandetanib, vatalanib, bafetinib, bosutinib, dasatinib, imatinib, nilotinib, ponatinib, radotinib, and SU6656, are generally soluble in ethanol, e.g., at 1.0 mg/mL or higher.

Molecule CNC(=O)c1cc(Oc2ccc(NC(=O)Nc3ccc(Cl)c(C(F)(F)F)c3)cc2)ccn1 [sorafenib] has a solubility of about 3300 µg/mL (≈ 7.1 mM).
